Structures are written as SMILES. Bounds are passed on as bounds.

In one test the test system is Chung model rats. Nature of the test: Chung rat nerve ligation model, tactile allodynia reversal (Von Frey). It counts as in vivo. To be noted: for allodynia reversal, single oral dose: Compound 3 30 μg/kg, Compound 11 0.1 mg/kg, Compound 4 0.3 mg/kg; for Peak allodynia reversal (dose): intraperitoneal injection, dose (3-300 μg/kg); for allodynia reversal: osmotic minipump 0.1 mg/kg/hour for five days; for maintenance of the analgesic effect after minipump removal: osmotic minipump for five days, four week test period; for persistence of analgesic effects after treatment: subcutaneous osmotic minipump 0.1 mg/kg/hour, seven days. On the procedure:
The Chung rat nerve ligation model is a well accepted model of peripheral neuropathic pain. In the Chung model, partial ligation of left spinal nerves L-5 and L-6 produces a long-lasting hypersensitivity to light touch on the affected left foot. The hypersensitivity is similar to pain experienced by humans with the neuropathic condition of causalgia (Kim and Chung, Pain 50:355-363 (1992)).
Chung rat surgeries of about 20 minutes duration were performed essentially as follows. Male Sprague-Dawley rats weighing 100 to 120 grams were anesthetized with isofluorane. After shaving and preparing the surgical site with betadine, an incision was made from thoracic vertebra XIII down toward the sacrum, and muscle separated from spinal vertebra (left side) at the L4-S2 levels. The L6 vertebra were located, and the transverse process carefully removed with a small rongeur to visually identify the L4-L6 spinal nerves. L5 and L6 spinal nerves were isolated and tightly ligated with 6-0 silk thread; the wound was sutured after complete hemostasis was confirmed. A small amount of antibiotic ointment was applied to the incised area before transferring the animals to a plastic recovery cage under a regulated heat-temperature lamp. Animals were not treated with any topical or local anesthetics post-operatively.
Assessment of pain in Chung model rats was performed by applying a light tactile stimulus (Von Frey hair) to the affected surgical paw as follows. A 50% pain threshold was established by applying the Von Frey hair in an up-and-down manner to the plantar surface of the surgical paw with just enough force to bend them. A positive response was recorded if the paw was withdrawn sharply. The 50% paw withdrawal threshold was determined using the method of Dixon et al., Ann. Rev. Pharmacol. Toxicol. 20:441-462 (1980). The post-drug threshold was compared to the pre-drug threshold, and the precent reversal of tactile sensitivity calculated based on a normal threshold of 15.1 grams. The results were expressed as % allodynia reversal, reflecting the percentage reversal of pain threshold relative to a normal rat (100%).
Chung surgeries were performed, and pain assessed as described above. Drugs administered via osmotic minipump were delivered as follows. ALZET (Cupertino, Calif.) minipumps (Model #1007D) were implanted subcutaneously on the rats' back between the shoulder blades. Pumps were filled with test solution prior to surgery, which was performed with aseptic procedures and sterilized surgical instruments. After anesthetization with isoflorane and midline incision between the shoulder blades through the muscle, a subcutaneous pocket was exposed. The minipump was inserted into the exposed pocket, before stapling the wounds closed and allowing animals to recover under a warming light.
ALZET osmotic minipumps (model 1007D) hold a total volume of 100 μl and delivered drug at the set rat of 0.5 μl per hour the indicated time period. Drugs were administered at the indicated rate, typically 100 μg/hr/kg, dissolved in 50% DMSO, with the concentration of drug in the pump varied depending on animal weight. […]

For another test, the target named is T1, human α-2C (c4 gene) (Homo sapiens, UniProt P18825).
T1 construct: expressed in transfected cells; host or cells: NIH-3T3
T1 sequence (P18825 1-462): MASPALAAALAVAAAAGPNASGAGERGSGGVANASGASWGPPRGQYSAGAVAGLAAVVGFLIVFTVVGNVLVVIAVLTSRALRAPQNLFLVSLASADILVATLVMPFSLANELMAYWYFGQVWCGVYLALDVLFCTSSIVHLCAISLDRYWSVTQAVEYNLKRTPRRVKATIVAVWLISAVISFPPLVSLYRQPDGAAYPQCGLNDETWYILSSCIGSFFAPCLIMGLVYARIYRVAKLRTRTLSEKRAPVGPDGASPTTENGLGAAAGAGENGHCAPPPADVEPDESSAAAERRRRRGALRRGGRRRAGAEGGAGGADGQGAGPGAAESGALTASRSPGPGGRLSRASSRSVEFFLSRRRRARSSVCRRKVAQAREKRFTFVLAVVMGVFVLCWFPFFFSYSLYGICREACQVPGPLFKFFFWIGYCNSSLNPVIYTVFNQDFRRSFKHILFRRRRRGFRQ
In words: RSAT assay, α-2C receptor. It counts as cell-based. The note with it: for EC50: NA = not active (EC50 ≧ 10,000); for Emax: in brackets under the RSAT activity, printed without % sign, read-out: % efficacy 2C. An excerpt:
Agonist and antagonist activity, including selectivity and specificity, can be characterized using any of a variety of routine assays, including, without limitation, Receptor Selection and Amplification Technology (RSAT) assays (Messier et al., Pharmacol. Toxicol. 76:308-11 (1995); Conklin et al., Nature 363:274-6 (1993)); cyclic AMP assays (Shimizu et al., J. Neurochem. 16:1609-1619 (1969)); and cytosensor microphysiometry assays (Neve et al., J. Biol. Chem. 267:25748-25753 (1992)). Such assays generally are performed using cells that naturally express only a single α-adrenergic receptor subtype, or using transfected cells expressing a single recombinant α-adrenergic receptor subtype. The adrenergic receptor can be a human receptor or homolog thereof having a similar pharmacology. As disclosed herein, RSAT assays were performed using cells transiently transfected with human α-2A (c10 gene); rat α-2B (RNG gene); human α-2C (c4 gene); bovine α-1A; hamster α-1B; and rat α-1D.
The RSAT assay measures receptor-mediated loss of contact inhibition resulting in selective proliferation of receptor-containing cells in a mixed population of confluent cells. The increase in cell number is assessed with an appropriate detectable marker gene such as β-galactosidase, if desired, in a high throughput or ultra high throughput assay format. Receptors that activate the G protein, Gq, elicit the proliferative response. α-adrenergic receptors, which normally couple to Gi, activate the RSAT response when coexpressed with a hybrid Gq protein containing a Gi receptor recognition domain, designated Gq/i5.
As an example, an RSAT assay can be performed essentially as follows. NIH-3T3 cells are plated at a density of 2×10^6 cells in 15 cm dishes and maintained in Dulbecco's modified Eagle's medium supplemented with 10% calf serum. One day later, cells are cotransfected by calcium phosphate precipitation with mammalian expression plasmids encoding p-SV-β-galactosidase (5-10 μg), receptor (1-2 μg) and G protein (1-2 μg). Carrier DNA, for example 40 μg salmon sperm DNA, also can be included to increase transfection efficiency. Fresh media is added on the following day; one to two days later, cells are harvested and frozen in 50 assay aliquots. Transfected cells are thawed, and 100 μl of cells added to 100 μl aliquots of compound to be tested, with various concentrations assayed in triplicate, for example, in 96-well plates. Incubation continues for 72 to 96 hours at 37°. After washing with phosphate-buffered saline, β-galactosidase activity is determined by adding 200 μl of chromogenic substrate (3.5 mM O-nitrophenyl-β-D-galactopyranoside/0.5% NP-40 in phosphate buffered saline), incubating overnight at 30°, and measuring optical density at 420 nm. The absorbancy is a measure of enzyme activity, which depends on cell number and reflects receptor-mediated cell proliferation. The EC50 and maximal effect (efficacy) of each drug at each receptor is determined.

A word on the EC50: it is the concentration needed to bring the measured effect to its halfway point. Read a high EC50 as a need for much substance. `O=c1[nH]cc(CC2CCc3cc(F)ccc32)[nH]1` (stereo not drawn) [Compound 4]: in the test on Chung model rats, the “allodynia reversal, single oral dose” value is reported as 60-80%; the “Peak allodynia reversal (dose)” value came out at 80% +/− 6.5%; the allodynia reversal entry is reported as “about 80%”; the “maintenance of the analgesic effect after minipump removal” value is reported as “maintained at essentially the same level over the entire four week test period”. Also, the “persistence of analgesic effects after treatment” value with Chung model rats was “continued for over a month after treatment was concluded”. For the same compound, in the test on Chung model rats (single oral dose), the “oral dose sufficient for an analgesic effect” value was found to be 0.03 mg/kg and the “time by which the analgesic effect was gone” value is given as “essentially no pain relief was observed after four hours”. In addition, the “allodynia reversal and duration at 1 mg/kg oral” value in the test on Chung model rats (single oral dose 1 mg/kg, compared with 0.3 mg/kg) was “the allodynia was reversed to a greater extent, and the pain relief was of longer duration”. Moreover, at human α-2C (c4 gene), the concentration giving a half-maximal response (EC50) is 202 nM and the Emax came out at 0.5%.

On to `S=c1[nH]cc(CC2CC=CC2)[nH]1` [Compound 11], for which, in the test on Chung model rats, the “allodynia reversal, single oral dose” value is listed as 60-90%; the allodynia reversal result is “about 80%”; the “maintenance of the analgesic effect after minipump removal” value is on record as “maintained at essentially the same level over the entire four week test period”. Also, in the test with Chung model rats (single oral dose), the “time by which the analgesic effect was gone” value was no more than 2 h. At human α-2C (c4 gene), the EC50 was 247 nM and the Emax came to 0.3%.

Turning to `O=C1c2ccccc2CCC1Cc1c[nH]c(=S)[nH]1` (racemic) [Compound 3], in the test with Chung model rats, the “allodynia reversal, single oral dose” value is reported as 70-100%; the “Peak allodynia reversal (dose)” value came to 81% +/− 10%; the allodynia reversal result is on record as “about 80%”; the “persistence of analgesic effects after treatment” value is on record as “continued for over a month after treatment was concluded”. The “analgesia, agonist given alone” value in the test on Chung model rats (peripheral (intraperitoneal) administration, Chung rats, Compound 2 100 μg/kg, clonidine 100 μg/kg, Compound 3 1 to 1000 μg/kg) is “significant analgesia without producing sedation”. In the test with Chung model rats (single oral dose), the “time by which the analgesic effect was gone” value is no more than 2 h and the “time to analgesic effect” value is recorded as “less than 20 minutes”. At human α-2C (c4 gene), this compound showed an EC50 greater than 2000 nM.

The record behind these values is patent publication US7345065B2, “Methods and compositions for alleviating pain” (Allergan, Inc., priority 2002, dated 2008).
